The text below walks through data of patent publication US11008321B2, “Crystalline form of an avibactam derivative” (ARIXA PHARMACEUTICALS, INC., priority 2019, dated 2021).

The conditions of data set [1]: trans isomer vs cis isomer; cited from earlier work.
Data set [2] is described as follows: Dynamic vapor sorption (hygroscopicity). It is filed as physicochemical. As for the experimental part:
The hygroscopicity of crystalline ethyl 3-(((((1R,2S,5R)-2-carbamoyl-7-oxo-1,6-diazabicyclo[3.2.1]octan-6-yl)oxy)sulfonyl)oxy)-2,2-dimethylpropanoate anhydrate (1) was evaluated during one vapor sorption/desorption cycle using a SMS DVS Intrinsic from Surface Measurement Systems set at 25° C., with a nitrogen (N2) gas flow rate of 200 mL/min, a dm/dt of 0.02%/min and a minimum dm/dt stability duration of 10 min. Samples (10 mg to 20 mg) were first dried at 25° C. for 180 min under a nitrogen atmosphere. The samples were considered equilibrated with the weight change during a 2-min interval was less than 0.01%. To evaluate the DVS the samples were exposed to a humidity cycle ramped/de-ramped from 5% RH to 95% RH at 10% RH intervals. At each humidity interval, the samples were equilibrated as determined by a less than 0.01% weight change during 5 min.

Data set [3] in a line: Thermogravimetric analysis. It is filed as physicochemical. To be noted: 10° C./min, N2. As for the experimental part:
Thermogravimetric analysis was performed using a TA Instruments Q500 TGA calibrated using a nickel reference standard. Samples were placed in an open platinum pan and after equilibrating at 35° C., the samples were heated under a nitrogen (N2) atmosphere at a rate of 10° C./min to a final temperature of 200° C. TGA curves for crystalline ethyl 3-(((((1R,2S,5R)-2-carbamoyl-7-oxo-1,6-diazabicyclo[3.2.1]octan-6-yl)oxy)sulfonyl)oxy)-2,2-dimethylpropanoate anhydrate are shown in FIGS. 2 and 4 show a weight loss of 9.7% between 125° C. to 150° C. The weight loss form 30° C. to 125° C. was 0.77%.

The nature of data set [4]: Stability on exposure to ambient conditions and formulation processing. It is filed as physicochemical.
Data set [5] is described as follows: Jet milling, crystalline form by XRPD before and after. It is filed as physicochemical. To be noted: jet milled, particle size about 8.6 μm. As for the experimental part:
X-ray powder diffraction (XPRD) analysis was performed using a Panalytical X-Pert Powder XPRD (Malvem Panalytical Ltd.) on a Si zero-background holder. The 20 position was calibrated against a Panalytical Si standard disc. The X-ray wavelength was Kα2/Kα1 (1.540598 Å/1.544425 Å) at a 0.5 intensity ratio. The X-ray tube was set at an output voltage of 45 kV and a current of 40 mA. A ⅛° fixed divergence slit was used and the diffraction patterns were obtained from 3° to 40° (°2θ) in a continuous scan mode using a step size of 0.01310 (2θ) and a scan speed of 0.145 deg/min. Crystalline anhydrate (1) was jet milled to obtain a uniform particle size distribution centered at a about 8.6 μm. An Alpine 50AS (PDS-PL-JM-01) Jet Mill (Hosokawa Alpine) was used to prepare the formulation. The injector gas pressure was 4.0 Bar and the grinding gas pressure was 3.5 Bar. Five (5) gm of crystalline anhydrate (1) was gradually added to the jet mill and collected. The milled product was stored at a temperature from 2° C. to 8° C.

A short description of data set [6]: Stability in aqueous suspension formulation (XRPD). To be noted: 25° C., 24 hours; 0.25 wt % Tween 80, 10 wt % PEG 400, 0.5 wt % methylcellulose, pH 3.0 citrate buffer. It is filed as physicochemical. As for the experimental part:
X-ray powder diffraction (XPRD) analysis was performed using a Panalytical X-Pert Powder XPRD (Malvem Panalytical Ltd.) on a Si zero-background holder. The 20 position was calibrated against a Panalytical Si standard disc. The X-ray wavelength was Kα2/Kα1 (1.540598 Å/1.544425 Å) at a 0.5 intensity ratio. The X-ray tube was set at an output voltage of 45 kV and a current of 40 mA. A ⅛° fixed divergence slit was used and the diffraction patterns were obtained from 3° to 40° (°2θ) in a continuous scan mode using a step size of 0.01310 (2θ) and a scan speed of 0.145 deg/min. An aqueous formulation of crystalline anhydrate (1) was prepared by suspending 100 mg crystalline anhydrate (1) in 100 mL of an aqueous solution containing 0.25 wt % Tween® 80, 10 wt % PEG 400, 0.5 wt % methylcellulose (400 cps), and a pH 3.0 citrate buffer. The suspension was sonicated and equilibrated for 24 hours at 25° C. before filtering out the crystalline anhydrate (1).

With `Nc1nc(/C(=C/CC(=O)O)C(=O)N[C@@H]2C(=O)N3C(C(=O)O)=CCS[C@H]23)cs1` [Ceftibuten, (6R,7R)-7-((Z)-2-(2-amino-4-thiazolyl)-4-carboxycrotonamido)-8-oxo-5-thia-1-azabicyclo(4.2.0)oct-2-ene-2-carboxylic acid], the “antibiotic activity of trans isomer relative to cis isomer” value in data set [1] was “about one-eighth”.

Take `CCOC(=O)C(C)(C)COS(=O)(=O)ON1C(=O)N2C[C@H]1CC[C@H]2C(N)=O` [crystalline anhydrate (1), ethyl 3-(((((1R,2S,5R)-2-carbamoyl-7-oxo-1,6-diazabicyclo[3.2.1]octan-6-yl)oxy)sulfonyl)oxy)-2,2-dimethylpropanoate]: in data set [2] (25° C., one sorption/desorption cycle, 5% RH to 95% RH), the “change of crystalline form during water absorption/desorption (reversibility of DVS isotherm)” value is on record as “does not change”. In addition, in data set [2] (25° C./95% RH, humidity range 0% RH to 95% RH, reversible), the “maximum increase in mass (moisture absorption)” value is listed as “about 3 wt %”. In addition, the “weight loss (TGA)” value in data set [3] (30° C. to 125° C.) turned out to be 0.77%; in data set [3] (between 125° C. to 150° C.) it was 9.7%. The “stability following exposure to ambient conditions” value in data set [4] (25° C./60% RH) is recorded as “stable”. Also, in data set [4] (formulation processing conditions), the “stability during formulation processing conditions” value is given as “stable”. Moreover, the “crystalline form before and after jet-milling (XRPD)” value in data set [5] is reported as “the same”. Also, the “stability in an aqueous suspension (XRPD similarity)” value in data set [6] is given as “stable”.
